Results taken from US8691855B2, “Compounds, isomer thereof, or pharmaceutically acceptable salts thereof as vanilloid receptor antagonist and pharmaceutical compositions containing the same” (Amorepacific Corporation, priority 2008, dated 2014).

These molecules were tested against T1, vanilloid receptor (Rattus norvegicus, UniProt O35433) (assay: 45Ca influx test (antagonist calcium uptake test) in rat DRG neurons stimulated with capsaicin). Settings: DRG neuron; @0.3 μM; neonatal SD rat DRG neurons; capsaicin 0.5 μM; read-out: Antagonist Calcium Uptake Test, percent inhibition of capsaicin response.
T1 construct: DRG nerve cells from the primary culture of 2 days were equilibrated; endogenous in cells; host or cells: primary culture of dorsal root ganglion neurons from neonatal SD rats
T1 sequence (O35433 whole entry): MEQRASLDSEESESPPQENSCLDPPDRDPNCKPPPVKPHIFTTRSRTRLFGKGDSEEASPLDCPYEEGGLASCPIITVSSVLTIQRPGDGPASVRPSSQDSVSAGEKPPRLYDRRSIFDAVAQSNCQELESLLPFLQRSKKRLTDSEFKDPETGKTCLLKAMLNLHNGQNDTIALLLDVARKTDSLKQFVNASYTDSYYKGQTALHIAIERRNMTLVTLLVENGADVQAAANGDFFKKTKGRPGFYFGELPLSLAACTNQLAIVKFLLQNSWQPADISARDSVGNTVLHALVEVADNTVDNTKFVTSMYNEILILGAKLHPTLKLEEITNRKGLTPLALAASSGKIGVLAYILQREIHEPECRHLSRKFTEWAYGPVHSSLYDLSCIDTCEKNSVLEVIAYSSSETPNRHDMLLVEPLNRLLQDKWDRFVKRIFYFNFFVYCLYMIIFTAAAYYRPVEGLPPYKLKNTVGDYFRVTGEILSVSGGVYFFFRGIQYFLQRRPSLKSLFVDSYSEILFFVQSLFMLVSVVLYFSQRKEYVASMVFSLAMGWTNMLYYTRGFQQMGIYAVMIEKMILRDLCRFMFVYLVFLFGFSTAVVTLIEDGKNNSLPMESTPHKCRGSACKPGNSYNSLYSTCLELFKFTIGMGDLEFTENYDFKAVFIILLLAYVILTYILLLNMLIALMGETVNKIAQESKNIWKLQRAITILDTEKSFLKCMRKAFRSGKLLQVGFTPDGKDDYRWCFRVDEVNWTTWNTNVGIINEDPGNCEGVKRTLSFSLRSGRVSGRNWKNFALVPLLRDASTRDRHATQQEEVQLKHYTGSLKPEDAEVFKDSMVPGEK
Type: cell-based
Summary of the method: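 Neonatal SD rat DRG neurons, cultured 2 days with NGF 200 ng/ml, exposed to test compound plus 0.5 μM capsaicin and 45Ca (10 μCi/ml) in HEPES-buffered Ca/Mg-free HBSS, pH 7.4, 10 min at room temperature. Influx counted by scintillation; activity as percent inhibition of the 0.5 μM capsaicin maximal response.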

SMILES | inhibition at 0.3 µM [%]
C=Cc1cc(CNC(=O)c2ccc(-c3cccc(C(F)(F)F)c3)o2)cc(F)c1NS(C)(=O)=O [Example 105, 5-(3-Trifluoromethyl-phenyl)-furan-2-carboxylic acid 3-fluoro-4-methanesulfonylamino-5-vinyl-benzylamide] | 96

Same assay, conditions: DRG neuron; @1 μM; neonatal SD rat DRG neurons; capsaicin 0.5 μM; read-out: Antagonist Calcium Uptake Test, percent inhibition of capsaicin response

SMILES | inhibition at 1 µM [%]
C[C@@H](NC(=O)c1ccc(-c2cc(C3CC3)cc(C(F)(F)F)c2)o1)c1cc(F)c(NS(C)(=O)=O)c(F)c1 [Example 95, 5-(3-Cyclopropyl-5-trifluoromethyl-phenyl)-furan-2-carboxylic acid [1-(3,5-difluoro-4-methanesulfonylamino-phenyl)-ethyl]-amide] | 66
C#Cc1cc(CNC(=O)c2ccc(-c3cccc(C(F)(F)F)c3)o2)cc(F)c1NS(C)(=O)=O [Example 104, 5-(3-Trifluoromethyl-phenyl)-furan-2-carboxylic acid 3-ethynyl-5-fluoro-4-methanesulfonylamino-benzylamide] | 100

Same assay, conditions: DRG neuron; @3 μM; neonatal SD rat DRG neurons; capsaicin 0.5 μM; read-out: Antagonist Calcium Uptake Test, percent inhibition of capsaicin response

SMILES | inhibition at 3 µM [%]
Cc1cc(CNC(=O)c2ccc(-c3cccc(C(F)(F)F)c3)o2)cc(F)c1NS(C)(=O)=O [Example 103, 5-(3-Trifluoromethyl-phenyl)-furan-2-carboxylic acid 3-fluoro-4-methanesulfonylamino-5-methyl-benzylamide] | 84
C=Cc1cc(-c2ccc(C(=O)N[C@H](C)c3cc(F)c(NS(C)(=O)=O)c(F)c3)o2)cc(C(F)(F)F)c1 [Example 114, 5-(3-Trifluoromethyl-5-vinyl-phenyl)-furan-2-carboxylic acid [1-(3,5-difluoro-4-methanesulfonylamino-phenyl)-ethyl]-amide] | 93

Same assay, conditions: neonatal SD rat DRG neurons; capsaicin 0.5 μM; 45Ca

SMILES | IC50 [nM]
C[C@@H](NC(=O)c1coc(-c2ccc(-c3ccccc3)cc2)n1)c1cc(F)c(NS(C)(=O)=O)c(F)c1 [Example 78, 2-Biphenyl-4-yl-oxazole-4-carboxylic acid [1-(3,5-difluoro-4-methanesulfonylamino-phenyl)-ethyl]-amide] | > 10000
C[C@@H](NC(=O)c1coc(-c2cccc(N(C)C)c2)n1)c1cc(F)c(NS(C)(=O)=O)c(F)c1 [Example 81, 2-(3-Dimethylamino-phenyl)-oxazole-4-carboxylic acid [1-(3,5-difluoro-4-methanesulfonylamino-phenyl)-ethyl]-amide] | 1000
C[C@@H](NC(=O)c1coc(-c2cccc(Cl)c2)n1)c1cc(F)c(NS(C)(=O)=O)c(F)c1 [Example 82, 2-(3-Chloro-phenyl)-oxazole-4-carboxylic acid [1-(3,5-difluoro-4-methanesulfonylamino-phenyl)-ethyl]-amide] | 650
C[C@@H](NC(=O)c1coc(-c2cc(Cl)cc(Cl)c2)n1)c1cc(F)c(NS(C)(=O)=O)c(F)c1 [Example 83, 2-(3,5-Dichloro-phenyl)-oxazole-4-carboxylic acid [1-(3,5-difluoro-4-methanesulfonylamino-phenyl)-ethyl]-amide] | 880
C[C@@H](NC(=O)c1coc(-c2cccc(Cl)c2Cl)n1)c1cc(F)c(NS(C)(=O)=O)c(F)c1 [Example 85, 2-(2,3-Dichloro-phenyl)-oxazole-4-carboxylic acid [1-(3,5-difluoro-4-methanesulfonylamino-phenyl)-ethyl]-amide] | 1200
C[C@@H](NC(=O)c1coc(-c2ccc(Cl)c(Cl)c2)n1)c1cc(F)c(NS(C)(=O)=O)c(F)c1 [Example 86, 2-(3,4-Dichloro-phenyl)-oxazole-4-carboxylic acid [1-(3,5-difluoro-4-methanesulfonylamino-phenyl)-ethyl]-amide] | 1000
C[C@@H](NC(=O)c1coc(-c2cccc3ccccc23)n1)c1cc(F)c(NS(C)(=O)=O)c(F)c1 [Example 88, 2-Naphthalen-1-yl-oxazole-4-carboxylic acid [1-(3,5-difluoro-4-methanesulfonylamino-phenyl)-ethyl]-amide] | 720
C[C@@H](NC(=O)c1coc(-c2ccc3ccccc3c2)n1)c1cc(F)c(NS(C)(=O)=O)c(F)c1 [Example 89, 2-Naphthalen-2-yl-oxazole-4-carboxylic acid [1-(3,5-difluoro-4-methanesulfonylamino-phenyl)-ethyl]-amide] | 2700
Cc1cccc(-c2nc(C(=O)N[C@H](C)c3cc(F)c(NS(C)(=O)=O)c(F)c3)co2)c1C [Example 90, 2-(2,3-Dimethyl-phenyl)-oxazole-4-carboxylic acid [1-(3,5-difluoro-4-methanesulfonylamino-phenyl)-ethyl]-amide] | 910
C[C@@H](NC(=O)c1coc(-c2ccc(F)c(C(F)(F)F)c2)n1)c1cc(F)c(NS(C)(=O)=O)c(F)c1 [Example 92, 2-(4-Fluoro-3-trifluoromethyl-phenyl)-oxazole-4-carboxylic acid [1-(3,5-difluoro-4-methanesulfonylamino-phenyl)-ethyl]-amide] | 1700
COc1cc(-c2nc(C(=O)N[C@H](C)c3cc(F)c(NS(C)(=O)=O)c(F)c3)co2)cc(C(F)(F)F)c1 [Example 97, 2-(3-Methoxy-5-trifluoromethyl-phenyl)-oxazole-4-carboxylic acid [1-(3,5-difluoro-4-methanesulfonylamino-phenyl)-ethyl]-amide] | 1400
CSc1cccc(-c2nc(C(=O)N[C@H](C)c3cc(F)c(NS(C)(=O)=O)c(F)c3)co2)c1 [Example 98, 2-(3-Methylsulfanyl-phenyl)-oxazole-4-carboxylic acid [1-(3,5-difluoro-4-methanesulfonylamino-phenyl)-ethyl]-amide] | 1700
Cc1cc(C)cc(-c2nc(C(=O)N[C@H](C)c3cc(F)c(NS(C)(=O)=O)c(F)c3)co2)c1 [Example 99, 2-(3,5-Dimethyl-phenyl)-oxazole-4-carboxylic acid [1-(3,5-difluoro-4-methanesulfonylamino-phenyl)-ethyl]-amide] | 2000
C[C@@H](NC(=O)c1ccc(-c2cc(C3CC3)cc(C3CC3)c2)o1)c1cc(F)c(NS(C)(=O)=O)c(F)c1 [Example 108, 5-(3,5-Dicyclopropyl-phenyl)-furan-2-carboxylic acid [1-(3,5-difluoro-4-methanesulfonylamino-phenyl)-ethyl]-amide] | 520
C[C@H](NC(=O)c1ccc(-c2cccc(C(F)(F)F)c2)o1)c1cc(F)c(NS(C)(=O)=O)c(F)c1 [Example 109, (S)-5-(3-Trifluoromethyl-phenyl)-furan-2-carboxylic acid [1-(3,5-difluoro-4-methanesulfonylamino-phenyl)-ethyl]-amide] | 270
CS(=O)(=O)Nc1c(F)cc(CNC(=O)c2ccc(-c3cccc(C(F)(F)F)c3)o2)cc1F [Example 110, 5-(3-Trifluoromethyl-phenyl)-furan-2-carboxylic acid 3,5-difluoro-4-methanesulfonylamino-benzylamide] | 620
C[C@@H](NC(=O)c1ccc(-c2cccc(C(F)(F)F)c2)o1)c1ccc(NS(C)(=O)=O)c(F)c1 [Example 111, 5-(3-Trifluoromethyl-phenyl)-furan-2-carboxylic acid [1-(3-fluoro-4-methanesulfonylamino-phenyl)-ethyl]-amide] | 240
Cc1cc(CNC(=O)c2ccc(-c3cccc(C(F)(F)F)c3)o2)ccc1NS(C)(=O)=O [Example 112, 5-(3-Trifluoromethyl-phenyl)-furan-2-carboxylic acid 4-methanesulfonylamino-3-methyl-benzylamide] | 220
CS(=O)(=O)Nc1c(F)cc(CNC(=O)c2ccc(-c3cccc(C(F)(F)F)c3)o2)cc1C(F)(F)F [Example 113, 5-(3-Trifluoromethyl-phenyl)-furan-2-carboxylic acid 4-methanesulfonylamino-3-fluoro-5-trifluomethyl-benzylamide] | 1400
C[C@@H](NC(=O)c1coc(-c2cc(Br)cc(C3CC3)c2)n1)c1cc(F)c(NS(C)(=O)=O)c(F)c1 [Example 115, 2-(3-Bromo-5-cyclopropyl-phenyl)-oxazole-4-carboxylic acid [1-(3,5-difluoro-4-methanesulfonylamino-phenyl)-ethyl]-amide] | 770
CCc1cc(-c2ccc(C(=O)N[C@H](C)c3cc(F)c(NS(C)(=O)=O)c(F)c3)o2)cc(C(F)(F)F)c1 [Example 116, 5-(3-Ethyl-5-trifluoromethyl-phenyl)-furan-2-carboxylic acid [1-(3,5-difluoro-4-methanesulfonylamino-phenyl)-ethyl]-amide] | 160
CS(=O)(=O)Nc1c(F)cc(CNC(=O)c2ccc(-c3cccc(C(F)(F)F)c3)o2)cc1C#N [Example 121, 5-(3-Trifluoromethyl-phenyl)-furan-2-carboxylic acid 3-cyano-5-fluoro-4-methanesulfonylamino-benzylamide] | 330
CS(=O)(=O)Nc1ccc(CNC(=O)c2cnc(-c3ccc(C(F)(F)F)cc3)s2)cc1F [Example 122, 2-(4-Trifluoromethyl-phenyl)-thiazole-5-carboxylic acid 3-fluoro-4-methanesulfonylamino-benzylamide] | 8800
C[C@@H](NC(=O)c1ccc(-c2ccc(F)c(C(F)(F)F)c2)o1)c1cc(F)c(NS(C)(=O)=O)c(F)c1 [Example 124, 5-(4-Fluoro-3-trifluoromethyl-phenyl)-furan-2-carboxylic acid [1-(3,5-difluoro-4-methanesulfonylamino-phenyl)-ethyl]-amide] | 42
CS(=O)(=O)Nc1ccc(CNC(=O)c2ccc(-c3ccc(F)c(C(F)(F)F)c3)o2)cc1F [Example 125, 5-(4-Fluoro-3-trifluoromethyl-phenyl)-furan-2-carboxylic acid 3-fluoro-4-methanesulfonylamino-benzylamide] | 530
